From ChEMBL document CHEMBL4765244, “Synthesis, bioconversion, pharmacokinetic and pharmacodynamic evaluation of N-isopropyl-oxy-carbonyloxymethyl prodrugs of CZh-226, a potent and selective PAK4 inhibitor” (Eur J Med Chem, 2020)

Tests used:
[1] = Chemical stability of the compound in pH 7.4 PBS buffer assessed as compound remaining measured after 2 hrs by HPLC analysis; assay type: physicochemical; conditions: read-out: Stabilty
[2] = Chemical stability of the compound in pH 1.2 simulated gastric fluid buffer assessed as compound remaining measured after 2 hrs by HPLC analysis; assay type: physicochemical
[3] = Stability of the compound in rat liver S9 fraction assessed as compound remaining measured after 60 mins at 37 degC by LC-MS/MS analysis; assay type: ADME, subcellular; conditions: read-out: Stabilty
[4] = Chemical stability of the compound in pH 6.8 simulated intestinal fluid assessed as compound remaining measured after 2 hrs by HPLC analysis; assay type: physicochemical
[5] = Stability of the compound in human plasma assessed as compound remaining measured within 120 mins at 37 degC by HPLC analysis; assay type: ADME, cell-free; conditions: read-out: Stabilty
[6] = Prodrug conversion in human plasma assessed as release of active metabolite (R)-(6-chloro-4-(5-cyclopropyl-1H-pyrazol-3-ylamino)quinazolin-2-yl)(3-methylpiperazin-1-yl)methanone hydrochloride measured within 120 mins at 37 degC by HPLC analysis; assay type: ADME, cell-free; conditions: 2 h
[7] = AUC in Wistar rat at 2 mg/kg, iv measured upto 24 hrs by LC/MS/MS analysis; assay type: ADME, organism-based; set-up: route intravenous, dose 2 mg/kg, time <=24; conditions: in vivo
[8] = Oral bioavailability in Wistar rat assessed as (R)-(6-chloro-4-(5-cyclopropyl-1H-pyrazol-3-ylamino)quinazolin-2-yl)(3-methylpiperazin-1-yl)methanone hydrochloride at 10 mg/kg measured upto 24 hrs by LC/MS/MS analysis; assay type: ADME, organism-based; conditions: in vivo
[9] = Clearance in Wistar rat at 2 mg/kg, iv measured upto 24 hrs by LC/MS/MS analysis; assay type: ADME, organism-based; conditions: in vivo
[10] = Volume of distribution in Wistar rat at 2 mg/kg, iv measured upto 24 hrs by LC/MS/MS analysis; assay type: ADME, organism-based; conditions: in vivo
[11] = Cmax in Wistar rat at 10 mg/kg, po measured upto 24 hrs by LC/MS/MS analysis; assay type: ADME, organism-based; set-up: route oral, dose 10 mg/kg, time <=24; conditions: in vivo
[12] = Initial plasma concentration in Wistar rat at 2 mg/kg, iv measured upto 24 hrs by LC/MS/MS analysis; assay type: ADME, organism-based; conditions: in vivo
[13] = AUC (0 to infinity) in Wistar rat at 10 mg/kg, po measured upto 24 hrs by LC/MS/MS analysis; assay type: ADME, organism-based; set-up: route oral, dose 10 mg/kg, time <=24; conditions: in vivo
[14] = Half life in Wistar rat at 2 mg/kg, iv measured upto 24 hrs by LC/MS/MS analysis; assay type: ADME, organism-based; conditions: in vivo
[15] = Tmax in Wistar rat at 10 mg/kg, po measured upto 24 hrs by LC/MS/MS analysis; assay type: ADME, organism-based; conditions: in vivo
[16] = AUC (0 to infinity) in Wistar rat at 2 mg/kg, iv measured upto 24 hrs by LC/MS/MS analysis; assay type: ADME, organism-based; set-up: route intravenous, dose 2 mg/kg, time <=24; conditions: in vivo
[17] = AUC (0 to t) in Wistar rat at 10 mg/kg, po measured upto 24 hrs by LC/MS/MS; assay type: ADME, organism-based; set-up: route oral, dose 10 mg/kg, time <=24; conditions: in vivo
[18] = Half life in Wistar rat at 10 mg/kg, po measured upto 24 hrs by LC/MS/MS analysis; assay type: ADME, organism-based; conditions: in vivo
[19] = Half life in Wistar rat assessed as (R)-(6-chloro-4-(5-cyclopropyl-1H-pyrazol-3-ylamino)quinazolin-2-yl)(3-methylpiperazin-1-yl)methanone hydrochloride at 13.84 mg/kg, po measured upto 24 hrs by LC/MS/MS analysis; assay type: ADME, organism-based; conditions: in vivo
[20] = AUC (0 to infinity) in Wistar rat assessed as (R)-(6-chloro-4-(5-cyclopropyl-1H-pyrazol-3-ylamino)quinazolin-2-yl)(3-methylpiperazin-1-yl)methanone hydrochloride at 13.84 mg/kg, po measured upto 24 hrs by LC/MS/MS analysis; assay type: ADME, organism-based; set-up: route oral, dose 13.84 mg/kg, time <=24; conditions: in vivo
[21] = Cmax in Wistar rat assessed as (R)-(6-chloro-4-(5-cyclopropyl-1H-pyrazol-3-ylamino)quinazolin-2-yl)(3-methylpiperazin-1-yl)methanone hydrochloride at 13.84 mg/kg, po measured upto 24 hrs by LC/MS/MS analysis; assay type: ADME, organism-based; set-up: route oral, dose 13.84 mg/kg, time <=24; conditions: in vivo
[22] = Tmax in Wistar rat assessed as (R)-(6-chloro-4-(5-cyclopropyl-1H-pyrazol-3-ylamino)quinazolin-2-yl)(3-methylpiperazin-1-yl)methanone hydrochloride at 13.84 mg/kg, po measured upto 24 hrs by LC/MS/MS analysis; assay type: ADME, organism-based; conditions: in vivo
[23] = AUC in Wistar rat assessed as (R)-(6-chloro-4-(5-cyclopropyl-1H-pyrazol-3-ylamino)quinazolin-2-yl)(3-methylpiperazin-1-yl)methanone hydrochloride at 13.84 mg/kg, po measured upto 24 hrs by LC/MS/MS analysis; assay type: ADME, organism-based; set-up: route oral, dose 13.84 mg/kg, time <=24; conditions: in vivo
[24] = AUC in Wistar rat assessed as (R)-(6-chloro-4-(5-cyclopropyl-1H-pyrazol-3-ylamino)quinazolin-2-yl)(3-methylpiperazin-1-yl)methanone hydrochloride at 12.43 mg/kg, po measured upto 24 hrs by LC/MS/MS analysis; assay type: ADME, organism-based; set-up: route oral, dose 12.43 mg/kg, time <=24; conditions: in vivo
[25] = Tmax in Wistar rat assessed as (R)-(6-chloro-4-(5-cyclopropyl-1H-pyrazol-3-ylamino)quinazolin-2-yl)(3-methylpiperazin-1-yl)methanone hydrochloride at 12.43 mg/kg, po measured upto 24 hrs by LC/MS/MS analysis; assay type: ADME, organism-based; conditions: in vivo
[26] = AUC (0 to infinity) in Wistar rat assessed as (R)-(6-chloro-4-(5-cyclopropyl-1H-pyrazol-3-ylamino)quinazolin-2-yl)(3-methylpiperazin-1-yl)methanone hydrochloride at 12.43 mg/kg, po measured upto 24 hrs by LC/MS/MS analysis; assay type: ADME, organism-based; set-up: route oral, dose 12.43 mg/kg, time <=24; conditions: in vivo
[27] = Cmax in Wistar rat assessed as (R)-(6-chloro-4-(5-cyclopropyl-1H-pyrazol-3-ylamino)quinazolin-2-yl)(3-methylpiperazin-1-yl)methanone hydrochloride at 12.43 mg/kg, po measured upto 24 hrs by LC/MS/MS analysis; assay type: ADME, organism-based; set-up: route oral, dose 12.43 mg/kg, time <=24; conditions: in vivo
[28] = Half life in Wistar rat assessed as (R)-(6-chloro-4-(5-cyclopropyl-1H-pyrazol-3-ylamino)quinazolin-2-yl)(3-methylpiperazin-1-yl)methanone hydrochloride at 12.43 mg/kg, po measured upto 24 hrs by LC/MS/MS analysis; assay type: ADME, organism-based; conditions: in vivo
[29] = Cmax in Wistar rat assessed as (R)-(6-chloro-4-(5-cyclopropyl-1H-pyrazol-3-ylamino)quinazolin-2-yl)(3-methylpiperazin-1-yl)methanone hydrochloride at 14.18 mg/kg, po measured upto 24 hrs by LC/MS/MS analysis; assay type: ADME, organism-based; set-up: route oral, dose 14.18 mg/kg, time <=24; conditions: in vivo
[30] = AUC in Wistar rat assessed as (R)-(6-chloro-4-(5-cyclopropyl-1H-pyrazol-3-ylamino)quinazolin-2-yl)(3-methylpiperazin-1-yl)methanone hydrochloride at 14.18 mg/kg, po measured upto 24 hrs by LC/MS/MS analysis; assay type: ADME, organism-based; set-up: route oral, dose 14.18 mg/kg, time <=24; conditions: in vivo
[31] = Half life in Wistar rat assessed as (R)-(6-chloro-4-(5-cyclopropyl-1H-pyrazol-3-ylamino)quinazolin-2-yl)(3-methylpiperazin-1-yl)methanone hydrochloride at 14.18 mg/kg, po measured upto 24 hrs by LC/MS/MS analysis; assay type: ADME, organism-based; conditions: in vivo
[32] = AUC (0 to infinity) in Wistar rat assessed as (R)-(6-chloro-4-(5-cyclopropyl-1H-pyrazol-3-ylamino)quinazolin-2-yl)(3-methylpiperazin-1-yl)methanone hydrochloride at 14.18 mg/kg, po measured upto 24 hrs by LC/MS/MS analysis; assay type: ADME, organism-based; set-up: route oral, dose 14.18 mg/kg, time <=24; conditions: in vivo
[33] = Tmax in Wistar rat assessed as (R)-(6-chloro-4-(5-cyclopropyl-1H-pyrazol-3-ylamino)quinazolin-2-yl)(3-methylpiperazin-1-yl)methanone hydrochloride at 14.18 mg/kg, po measured upto 24 hrs by LC/MS/MS analysis; assay type: ADME, organism-based; conditions: in vivo

Structure (SMILES) | remaining at 2 h [1] [%] | Stability [2] [%] | remaining at 1 h [3] [%] | Stability [4] [%] | remaining at 2 h [5] [%] | Drug metabolism [6] [%] | also measured
C[C@@H]1CN(C(=O)c2nc(Nc3cc(C4CC4)[nH]n3)c3cc(Cl)ccc3n2)CCN1C(=O)OC(C)(C)C | 99.1 | 37.1 | 71.3 | 90.2 | 73.7 | 20.7 | 
CCCCCOC(=O)N1CCN(C(=O)c2nc(Nc3cc(C4CC4)[nH]n3)c3cc(Cl)ccc3n2)C[C@H]1C | 99.8 | 88.4 | 63.9 | 90.7 | 74.4 | 21.4 | 
COC(=O)N1CCN(C(=O)c2nc(Nc3cc(C4CC4)[nH]n3)c3cc(Cl)ccc3n2)C[C@H]1C | 100 | 95.2 | 34.2 | 91.5 | 84.6 | 13.4 | 
C[C@@H]1CN(C(=O)c2nc(Nc3cc(C4CC4)[nH]n3)c3cc(Cl)ccc3n2)CCN1.Cl |  |  | 53.9 |  | 97.4 |  | AUC at 24 h [7]: 1110 ng·h/mL; F [8]: 1.92%; clearance [9]: 29.7 mL/min/kg; Vd [10]: 12.4 L/kg; Cmax [11]: 14.9 ng/mL; C0 [12]: 4520 ng/mL; AUC(0-inf) [13]: 108 ng·h/mL; half-life [14]: 4.8 h; Tmax [15]: 4.98 min; AUC(0-inf) [16]: 1120 ng·h/mL; AUC(0-t) at 24 h [17]: 106 ng·h/mL; half-life [18]: 3.9 h
CCOC(=O)N1CCN(C(=O)c2nc(Nc3cc(C4CC4)[nH]n3)c3cc(Cl)ccc3n2)C[C@H]1C | 97.7 | 89.5 | 48.5 | 92.9 | 85.3 | 14.8 | 
CC(C)OC(=O)N1CCN(C(=O)c2nc(Nc3cc(C4CC4)[nH]n3)c3cc(Cl)ccc3n2)C[C@H]1C | 99 | 70.2 | 78.6 | 94.4 | 78.5 | 18.7 | 
C[C@@H]1CN(C(=O)c2nc(Nc3cc(C4CC4)[nH]n3)c3cc(Cl)ccc3n2)CCN1C(=O)OCOC(=O)C(C)(C)C | 97.7 | 83.9 | 47 | 93 | 0 | 94 | t1/2 [19]: 30.204 h; AUC [20]: 67.6 ng·h/mL; Cmax [21]: 2.8 ng/mL; Tmax [22]: 4.98 min; AUC [23]: 28.8 ng·h/mL
CC(C)COC(=O)N1CCN(C(=O)c2nc(Nc3cc(C4CC4)[nH]n3)c3cc(Cl)ccc3n2)C[C@H]1C | 99 | 70.2 | 61.1 | 88.8 | 73.7 | 25.7 | AUC [24]: 63.5 ng·h/mL; Tmax [25]: 1.5 h; AUC [26]: 111.2 ng·h/mL; Cmax [27]: 7.4 ng/mL; t1/2 [28]: 16.723 h
CC(OC(=O)N1CCN(C(=O)c2nc(Nc3cc(C4CC4)[nH]n3)c3cc(Cl)ccc3n2)C[C@H]1C)OC(=O)C(C)(C)C (stereo not given in full) | 90.5 | 92.2 | 66.3 | 88.7 | 49.4 | 46.3 | Cmax [29]: 3.9 ng/mL; AUC [30]: 35.1 ng·h/mL; t1/2 [31]: 8.378 h; AUC [32]: 44.2 ng·h/mL; Tmax [33]: 8 h
C[C@@H]1CN(C(=O)c2nc(Nc3cc(C4CC4)[nH]n3)c3cc(Cl)ccc3n2)CCN1C(=O)OCC(Cl)(Cl)Cl | 98.7 | 88.5 | 78.9 | 88.2 | 79 | 16.3 | 
CC(OC(=O)C(C)C)OC(=O)N1CCN(C(=O)c2nc(Nc3cc(C4CC4)[nH]n3)c3cc(Cl)ccc3n2)C[C@H]1C (stereo not given in full) | 96.6 | 62.5 | 11 | 88.6 | 17.4 | 78.8 | t1/2 [19]: 10.35 h; AUC [20]: 59.6 ng·h/mL; Cmax [21]: 28.3 ng/mL; Tmax [22]: 4.98 min; AUC [23]: 50 ng·h/mL
C[C@@H]1CN(C(=O)c2nc(Nc3cc(C4CC4)[nH]n3)c3cc(Cl)ccc3n2)CCN1C(=O)OCc1ccccc1 | 97.7 | 84.7 | 45.6 | 93.6 | 86.2 | 13.5 | 
